We go through five compounds from patent publication US4400384A, “5-o-Cyanobenzyl-4,5,6,7-tetrahydrothieno [3,2-c] pyridine methanesulfonate and other novel salts thereof” (Sanofi, S.A., priority 1980, dated 1983).

Experiment [1] concerns blood-platelet aggregation (ADP). Kind of experiment: Inhibitor action on blood-platelet aggregation, ADP method (ex vivo after gastric tube dosing). It counts as in vivo, female rats of the Wistar type. The note with it: 100 mg/Kg base equivalent at 48, 24 and 2 h before blood drawing. How it is done: (§1) The inhibitor action on blood-platelet aggregation of the salts of the present invention was determined by two different standard methods known to the art.
(§2) The first method, involving the use of ADP (adenosine diphosphate), is that of Ferrand J. C., Gaich C., Dumas, A.--EVALUATION DE L' EFFET ANTI-AGREGANT DE LA TICLOPIDINE PAR UNE TECHNIQUE SUR SANG TOTAL. COMM. SOCIETE DE BIOLOGIE DE TOULOUSE (TOULOUSE Feb. 9, 1978), RESUME IN: REV MED TOULOUSE, 1978, 14, (SUPPL. 5) 680, referred to hereinafter as the ADP method.
(§3) Groups of 10 female rats of the Wistar type were each dosed with one of the base or one of the salts of the invention and with the corresponding maleate salt of Amselem U.S. Pat. No. 4,097,482, at periods of 48 hours, 24 hours and 2 hours prior to drawing blood for testing by the ADP and collagen techniques referred to above. The active medicaments were administered by means of a gastric tube in the form of a 5% aqueous solution of gum arabic. A dosage level of 100 mg/Kg was used for the base, and for the salts an amount was used sufficient to provide the equivalent amount of the base portion of the salt.

The test system of experiment [2] is blood-platelet aggregation (collagen). Kind of experiment: Inhibitor action on blood-platelet aggregation, collagen method (ex vivo after gastric tube dosing). It counts as in vivo, female rats of the Wistar type. Conditions: 100 mg/Kg base equivalent at 48, 24 and 2 h before blood drawing. As for the experimental part: as §1
(§4) The second method is that described in Ferrand J. C., Lale A.--NUMERATION ET AGREGATION PLAQUETTAIRE A L AIDE DE L AUTOCOUNTER. APPLICATION A L ETUDE DE LA TICLOPIDINE. COMM. SYMPOSIUM TECHNICON INDUSTRIE (PARIS, June 15, 1978); Ferrand J. C., Lale A.--EVALUATION EX-VIVO DE L AGREGATION PLAQUETTAIRE PAR UNE TECHNIQUE AUTOMATIQUE SUR SANG TOTAL COMM. SOCIETE FRANCAISE DE BIOLOGIE CLINIQUE (PARIS Sept. 28, 1979); and J. C. Ferrand, A. Lale, D. Aubert and G. Barthelemy--APPRECIATION QUANTITATIVE DE L' ACTIVITE ANTI-AGREGANTE DE LA TICLOPIDINE PAR VOIE AUTOMATIQUE. COMM. REUNION DE L' ASOCIATION FRANCAISE DE PHARMACOLOGISTES DIJON (May 2-3, 1980), and is referred to hereafter as the collagen method.
as §3

For experiment [3], the system named is blood-platelet aggregation. Kind of experiment: Inhibition of blood-platelet aggregation (general statement). It counts as in vivo. The note with it: result in words. How it is done:
as §1, §2
as §4, with “method. […]” for “method.”

For experiment [4] the following is noted: prior art maleate; cited from earlier work.
The conditions of experiment [5]: prior art maleate; cited from earlier work. This is another data set of the same source.

Molecules are shown by their SMILES. Structures can show the parent of a compound that is named as a salt.

On to `N#Cc1ccccc1CN1CCc2sccc2C1` [Hydrochloride, 5-o-cyanobenzyl-4,5,6,7-tetrahydrothieno [3,2-c] pyridine], for which the “BLOOD PLATELET AGGREGATION, ADP, 1 mn 30 s” value in experiment [1] (controls 0.29, 100 mg/kg) is 0.82. Besides, in experiment [1] (controls 0.40, 100 mg/kg), the “BLOOD PLATELET AGGREGATION, ADP, 3 mn” value is 0.82. In experiment [2] (controls 2.53, 100 mg/kg), the “BLOOD PLATELET AGGREGATION, COLLAGEN” value stood at 0.84.
Turning to `N#Cc1ccccc1CN1CCc2sccc2C1` [Nitrate, 5-o-cyanobenzyl-4,5,6,7-tetrahydrothieno [3,2-c] pyridine], the “BLOOD PLATELET AGGREGATION, ADP, 1 mn 30 s” value in experiment [1] (controls 0.29, 100 mg/kg) came to 0.84. In experiment [1] (controls 0.40, 100 mg/kg), the “BLOOD PLATELET AGGREGATION, ADP, 3 mn” value was 0.83. Besides, the “BLOOD PLATELET AGGREGATION, COLLAGEN” value in experiment [2] (controls 2.53, 100 mg/kg) turned out to be 0.91.
With `N#Cc1ccccc1CN1CCc2sccc2C1` [Hemitartrate, 5-o-cyanobenzyl-4,5,6,7-tetrahydrothieno [3,2-c] pyridine], in experiment [1] (controls 0.29, 100 mg/kg), the “BLOOD PLATELET AGGREGATION, ADP, 1 mn 30 s” value is 0.74. Moreover, the “BLOOD PLATELET AGGREGATION, ADP, 3 mn” value in experiment [1] (controls 0.40, 100 mg/kg) is on record as 0.84. In addition, the “BLOOD PLATELET AGGREGATION, COLLAGEN” value in experiment [2] (controls 2.53, 100 mg/kg) stood at 0.74.
Turning to `N#Cc1ccccc1CN1CCc2sccc2C1` [Hemifumarate, 5-o-cyanobenzyl-4,5,6,7-tetrahydrothieno [3,2-c] pyridine], in experiment [1] (controls 0.29, 100 mg/kg), the “BLOOD PLATELET AGGREGATION, ADP, 1 mn 30 s” value is recorded as 0.76. Moreover, in experiment [1] (controls 0.40, 100 mg/kg), the “BLOOD PLATELET AGGREGATION, ADP, 3 mn” value is 0.82. Also, in experiment [2] (controls 2.53, 100 mg/kg), the “BLOOD PLATELET AGGREGATION, COLLAGEN” value turned out to be 0.42.
On to `N#Cc1ccccc1CN1CCc2sccc2C1.O=C(O)/C=C\C(=O)O` [Maleate, 5-o-cyanobenzyl-4,5,6,7-tetrahydrothieno [3,2-c] pyridine maleate, reference compound], for which the “BLOOD PLATELET AGGREGATION, ADP, 1 mn 30 s” value in experiment [1] (controls 0.29) was 0.70. The “BLOOD PLATELET AGGREGATION, ADP, 3 mn” value in experiment [1] (controls 0.40) was 0.81. In experiment [2] (controls 2.53), the “BLOOD PLATELET AGGREGATION, COLLAGEN” value is on record as 0.80. Moreover, in experiment [3], the “inhibitor action against blood-platelet aggregation” value was “substantial activity in the inhibition of blood-platelet aggregation”. Besides, the “anti-inflammatory activity (prior art salt)” value in experiment [4] is on record as “not free of anti-inflammatory”. The “vasodilator activity (prior art salt)” value in experiment [5] is on record as “not free of anti-inflammatory or vasodilator activity”.
